Results on two compounds are retold here after patent US11111222B2, “Hydroxyeicosatrienoic acid compounds and their use as therapeutic agents” (THE REGENTS OF THE UNIVERSITY OF MICHIGAN, priority 2016, dated 2021).

In experiment [1] the test system is adenylyl cyclase. Nature of the experiment: LC/MS quantification of cAMP in washed human platelets. Format: cell-based. To be noted: 25 μM, 1 min; platelets pre-treated with 10 μM IBMX; vs DMSO. Here is the method: Washed human platelets were treated with the specific ligand or vehicle control for 1 min at room temperature, and quenched with an equal volume of ice-cold 2× platelet lysis buffer containing protease and phosphatase inhibitors. Lysed platelet samples were centrifuged at 14,000 g for 7 min at 4° C. to pellet cytoskeleton and the supernatant was stored in −80° C.
To prepare the sample for LC/MS injection, 200 μL of the supernatant was spiked with 400 pg of adenosine-3′,5′-cyclic-13C5 monophosphate (^13C5-cAMP) (Toronto Research Chemicals, Inc.), an internal standard, and 600 μL of LC/MS grade acetonitrile (Fisher Scientific). The sample was briefly vortexed and centrifuged at 14,000 rpm for 10 min at 4° C. The supernatants were then air dried in a SpeedVac and reconstituted in 200 μL of LC/MS grade water and centrifuged at 10,000 rpm for 5 min at 4° C. and used for LC/MS injection.
The separation and detection of cAMP was performed on a Waters ACQUITY UPLC system equipped with a Xevo Triple Quadrupole Mass Spectrometer (TQ-S MS/MS). […]
The mass spectrometer was operated with an ESI source in positive mode. […] Cyclic AMP (cAMP) was quantitated using ^13C5-cAMP as the internal standard. […]

The test system of experiment [2] is VASP (serine 157). Description: VASP phosphorylation in human platelets. Format: cell-based. As to conditions: 25 μM, 1 min; vs DMSO. Here is the method: Washed platelets were treated with PUFA or PUFA metabolite (12(S)-HETrE or compound IIc) for one minute, then directly lysed in 5× Laemmeli sample buffer (1.5 M Tris-HCl, pH 6.8, glycerol, 5% β-mercaptoethanol, 10% sodium dodecyl sulfate (SDS), and 1% bromophenol blue). The samples were boiled for five minutes and then run on a 10% SDS-PAGE gel. The levels of total and phospho-VASP (serine 157) were quantified by Western Blot using an Odyssey imaging system (LI-CoR).

For experiment [3], the system named is Gαs. Nature of the experiment: [35S]GTPγS binding to immunoprecipitated Gαs, platelet membranes. Format: biochemical. As to conditions: human platelet membranes, vs DMSO. Here is the method:
PRP was isolated from whole blood as described above and then incubated with 1 mM aspirin for 1 hour at 37° C. Platelets were pelleted at 2000 g for 10 min in the presence of 10×ACD and apyrase. The pelleted platelets were washed with Tyrode's and centrifuged at 2000×g with 10×ACD for 10 min at room temperature. The platelets were flash frozen with liquid nitrogen and then resuspended in cold detergent-free TME buffer (50 mM Tris-HCl, pH 7.5, 20 mM MgCl2, 2 mM EDTA, and 100 mM NaCl) with 1 μM GDP and protease and phosphatase inhibitors to lyse the platelets. The lysed platelets were centrifuged at 1500 g at 4° C. for 5 min. The supernatant was collected and centrifuged at 100,000×g for 30 min at 4° C. The pelleted membranes were resuspended in TME buffer with 1 μM GDP and stored at −80° C. prior to use. Fatty acid metabolites, agonists, or DMSO and [^35S]GTPγS (10 nM) were added to platelet membranes (60 μg/reaction) on ice, and the tubes were immediately transferred to a 30° C. water bath shaker for 20 min. The reaction was terminated by the addition of ice-cold IP buffer (50 mM Tris-HCl, pH 7.5, 20 mM MgCl2, 150 mM NaCl, 0.5% Nonidet P-40, 0.33% aprotinin, 0.1 mM GDP, and 0.1 mM GTP). The samples were pre-cleared with Protein A agarose beads and normal rabbit IgG for 30 min on a nutator at 4° C. and then aliquoted equally into two tubes containing either normal rabbit IgG or a Gs antibody that had been conjugated to Protein A agarose beads. The samples were incubated on a nutator for 1 hr at 4° C. and washed 4 times with IP buffer and 1 time in TME buffer. The samples were boiled in 0.5% SDS for 30 sec, and the supernatants were collected following brief centrifugation. The supernatants were analyzed in 8 mL of scintillation fluid. The background counts for the normal rabbit IgG (50-200 cpm) for each sample were subtracted from the anti-Gs immunoprecipitated samples prior to analyzing the data.

The test system of experiment [4] is washed human platelets. Nature of the experiment: Human platelet aggregation after pre-treatment with adenylyl cyclase inhibitor SQ 22536. Format: cell-based. To be noted: platelets pre-treated with SQ 22536 (25 μM, 20 min); iloprost 0.2 to 0.4 nM, 1 min; EC80 PAR4-AP. As for the experimental part:
Blood from healthy donors was collected into vacutainers containing buffered sodium citrate, and platelets were isolated by serial centrifugation as described above for mouse platelets. The platelets were resuspended in Tyrode's buffer at 3×10^8 platelets/mL, unless otherwise specified.
A lumi-aggregometer (Chrono-log model 700D) was used to measure platelet aggregation under stirring conditions (1100 rpm) at 37° C. […]

As for `CCCCC/C=C\CC(/C=C/C=C\CCCCCCC(=O)O)OO` (centres unmarked) [Compound 12-HpETrE], the “level of intracellular cAMP” value in experiment [1] was “significant increase in the level of intracellular cAMP”. In addition, the “VASP phosphorylation (S157)” value in experiment [2] was “enhanced VASP phosphorylation”. Besides, in experiment [3] (25 μM), the “[35S]GTPγS binding to immunoprecipitated Gαs” value was “significant increase in [^35S]GTPγS binding”.

Regarding `CC#CCC(C)[C@H](O)/C=C/[C@@H]1[C@H]2C/C(=C/CCCC(=O)O)C[C@H]2C[C@H]1O` (some centres unmarked) [iloprost], in experiment [4], the PAR4-AP-mediated platelet aggregation result was “unable to inhibit PAR4-AP-mediated platelet aggregation”. Besides, the “[35S]GTPγS binding to immunoprecipitated Gαs” value in experiment [3] (iloprost 10 μM) is “significant increase in [^35S]GTPγS binding”.
